Results as given in BigSolDB 2.1.

CC1=C(/C=C/C(C)=C/C=C/C(C)=C/C=C/C=C(C)/C=C/C=C(C)/C=C/C2=C(C)C(=O)CCC2(C)C)C(C)(C)CCC1=O
solubility (mole fraction)
Conditions	293.15 K	298.15 K	303.15 K	308.15 K	313.15 K	318.15 K	323.15 K	333.15 K	343.15 K
in acetone	1.95e-05	2.45e-05	3.1e-05	3.72e-05	4.22e-05	4.94e-05	–	–	–
in cyclohexane	1.27e-05	–	1.33e-05	–	1.38e-05	–	1.48e-05	1.71e-05	2.06e-05
in ethanol	4.5e-06	–	5.6e-06	–	6.35e-06	–	7.48e-06	8.72e-06	9.9e-06
in ethyl acetate	2.71e-05	–	3.67e-05	–	5.43e-05	–	8.58e-05	0.000144	0.000256
in methanol	2.61e-06	–	2.93e-06	–	3.27e-06	–	3.77e-06	4.53e-06	–
in toluene	0.000118	–	0.000146	–	0.000171	–	0.00019	0.000202	0.000208
